Patent US20030059774A1, “Detection of CYP2C19 polymorphisms” (priority 2000, published 2003)

System: CYP2C19
Experiment: Omeprazole metabolic ratio (MR) phenotyping of study subjects, correlated with CYP2C19 5' flanking region haplotypes
Assay type: in vivo, human
Settings: for MR (Ome), predicted metabolic ratio: based on 144 samples; for MR-range (min-max): omeprazole 20 mg oral, 3 hours; for mr50 (metabolic ratio of the 50th percentile), mr(omeprazole): single oral dose 20 mg omeprazole, blood sample 3 hours after intake
Protocol: The study was performed in accordance with the principles stated in the Declaration of Helsinki as reviewed in Tokyo 1975 and Venice 1983, Hong Kong 1989 and Somerset West 1996. Subjects were preferably not related to each other. Based on questioning, individuals having one of the following were excluded: a medical condition judged to influence liver function or requiring pharmacological treatment; any on-going disease; intake of any drug, except oral contraceptives, during one week prior to the study; breast-feeding or pregnancy. No physical examination was performed. For these experiments, a single oral dose of 20 mg omeprazole (Losec, AstraZeneca) was given in the morning after an overnight fast. The bladder was emptied before drug intake. A single blood sample was collected 3 hours after drug intake.
In the first part of the study, approximately 90 samples (Swedish Caucasians) were selected as set forth in Table 1, on the basis of the following assumptions: if the distribution of an unknown polymorphism will be 25% for a homozygote, a sample size of approximately 40 “UEM” will be able to detect an increase in this specific genotype (homozygote) by 28% (α=5% (two-tailed), power=80%). If it is assumed that the distribution of an unknown polymorphism will be 10% for a homozygote, a sample size of approximately 40 “UEM” will be able to detect an increase in this specific genotype (homozygote) by 21% (α-5% (two-tailed), power=80%). The samples were selected with regard to their phenotyped metabolic ratios (MR) of omeprazole. Available genotype information for all samples was provided.
In the second part of the study, 71 samples with a more normal phenotypic distribution were used. Also, no exclusion of individuals with known defective alleles or duplications was done.
This analysis was performed using software based on maximum likelihood methodology and using the EM algorithm of Excoffier et al. (1995), Mol Biol Evol. 12:921-927. […] From the haplotype information two different kinds of variables were created: one variable was formed as a haplotype combination variable (HTYPE). This variable has the value H1/H2 when the subject has haplotypes 1 and 2, etc. Variables H1, H2, H3 and H4 are haplotype annotations that denote the number of copies of that particular haplotype for the subject, e.g., for a subject with haplotype H1/H2 the variables H1, H2, H3 and H4 will be 1, 1, 0 and 0, respectively. Each of these variables can thus take on the values 0, 1 or 2. Only the four most frequent haplotypes were considered when those variables were formed.

How did the “MR (Ome), predicted metabolic ratio” value (HTYPE H1/H1 (352 C, 1060 T), marker for EM) turn out when `COc1ccc2[nH]c([S+]([O-])Cc3ncc(C)c(OC)c3C)nc2c1` (stereo not drawn) [omeprazole] was run?
Its value is 0.2-0.8.

What about the “MR-range (min-max)” value (HTYPE H1/H1, 63 subjects) of the same molecule?
The value was 0.17-2.90.

And the “MR (Ome), predicted metabolic ratio” value (HTYPE H1/H2 (352 C/T, 1060 T), marker for UEM & EM)?
Its value is less than 0.8.

And the “MR-range (min-max)” value (HTYPE H1/H2, 31 subjects)?
The value was 0.12-2.62.

And the “MR (Ome), predicted metabolic ratio” value (HTYPE H1/H3 (352 C, 1060 C/T), marker for EM &IM)?
The value was 0.4-7.0.

What about the “MR-range (min-max)” value (HTYPE H1/H3, 27 subjects) of the same molecule?
The value was 0.03-11.87.

What about the “MR (Ome), predicted metabolic ratio” value (HTYPE H2/H2 (352 T, 1060 T), marker for UEM/EM) of the same molecule?
Its value is less than 0.4.

What about the “MR-range (min-max)” value (HTYPE H2/H2, 4 subjects) of the same molecule?
The value was 0.15-0.33.

What about the “MR (Ome), predicted metabolic ratio” value (HTYPE H2/H3 (352 C/T, 1060 C/T), marker for EM & (IM)) of the same molecule?
The value was 0.4-2.0.

And the “MR-range (min-max)” value (HTYPE H2/H3, 12 subjects)?
The value was 0.36-1.75.

And the “MR (Ome), predicted metabolic ratio” value (HTYPE H3/H3 (352 C, 1060 C), marker for PM)?
The value was greater than 7.0.

And the “MR-range (min-max)” value (HTYPE H3/H3, 7 subjects)?
Its value is 1.28-23.75.

And the “mr50 (metabolic ratio of the 50th percentile), mr(omeprazole)” value (haplotype H1/H1, n = 60)?
The value was “mr50 = 0.485”.

And the “mr50 (metabolic ratio of the 50th percentile), mr(omeprazole)” value (haplotype H1/—, n = 63)?
Its value is “mr50 = 0.63”.

What about the “mr50 (metabolic ratio of the 50th percentile), mr(omeprazole)” value (haplotype H2/H2, n = 4) of the same molecule?
The value was “mr50 = 0.25”.

What about the “mr50 (metabolic ratio of the 50th percentile), mr(omeprazole)” value (haplotype H2/—, n = 44) of the same molecule?
Its value is “mr50 = 0.485”.

And the “mr50 (metabolic ratio of the 50th percentile), mr(omeprazole)” value (haplotype H3/H3, n = 7)?
Its value is “mr50 = 16.86”.

What about the “mr50 (metabolic ratio of the 50th percentile), mr(omeprazole)” value (haplotype H3/—, n = 39) of the same molecule?
The value was “mr50 = 0.88”.

And the “mr50 (metabolic ratio of the 50th percentile), mr(omeprazole)” value (haplotype H4/H4, n = 2)?
Its value is “mr50 = 1.5”.

What about the “mr50 (metabolic ratio of the 50th percentile), mr(omeprazole)” value (haplotype H4/—, n = 14) of the same molecule?
Its value is “mr50 = 0.755”.

What about the “mr50 (metabolic ratio of the 50th percentile), mr(omeprazole)” value (haplotype —/— (no copy of H1), n = 30) of the same molecule?
The value was “mr50 = 0.97”.

What about the “mr50 (metabolic ratio of the 50th percentile), mr(omeprazole)” value (haplotype —/— (no copy of H2), n = 105) of the same molecule?
The value was “mr50 = 0.64”.

What about the “mr50 (metabolic ratio of the 50th percentile), mr(omeprazole)” value (haplotype —/— (no copy of H3), n = 107) of the same molecule?
Its value is “mr50 = 0.47”.

And the “mr50 (metabolic ratio of the 50th percentile), mr(omeprazole)” value (haplotype —/— (no copy of H4), n = 137)?
The value was “mr50 = 0.56”.
